Measured values as given in ChEMBL document CHEMBL1201862, “PubChem BioAssay data set” (2004).
One block for each molecule: values may come before it. Activity calls are given as the source filed them.

What was measured:
[1] = target: Eukaryotic translation initiation factor 4E (Mus musculus, UniProt P63073); experiment: eIF4E–eIF4G protein interaction inhibitors, dose response, biochemical, TR-FRET (AID 855); type: functional;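 also: potency for disrupting eIF4E binding to eIF4GI seen as loss of FRET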
[2] = target: T1, Hexokinase HKDC1 (Homo sapiens, UniProt Q2TB90); experiment: HKDC1 hexokinase inhibitors, dose response, biochemical, W721R variant (AID 504729); type: functional
T1 sequence (Q2TB90 whole entry): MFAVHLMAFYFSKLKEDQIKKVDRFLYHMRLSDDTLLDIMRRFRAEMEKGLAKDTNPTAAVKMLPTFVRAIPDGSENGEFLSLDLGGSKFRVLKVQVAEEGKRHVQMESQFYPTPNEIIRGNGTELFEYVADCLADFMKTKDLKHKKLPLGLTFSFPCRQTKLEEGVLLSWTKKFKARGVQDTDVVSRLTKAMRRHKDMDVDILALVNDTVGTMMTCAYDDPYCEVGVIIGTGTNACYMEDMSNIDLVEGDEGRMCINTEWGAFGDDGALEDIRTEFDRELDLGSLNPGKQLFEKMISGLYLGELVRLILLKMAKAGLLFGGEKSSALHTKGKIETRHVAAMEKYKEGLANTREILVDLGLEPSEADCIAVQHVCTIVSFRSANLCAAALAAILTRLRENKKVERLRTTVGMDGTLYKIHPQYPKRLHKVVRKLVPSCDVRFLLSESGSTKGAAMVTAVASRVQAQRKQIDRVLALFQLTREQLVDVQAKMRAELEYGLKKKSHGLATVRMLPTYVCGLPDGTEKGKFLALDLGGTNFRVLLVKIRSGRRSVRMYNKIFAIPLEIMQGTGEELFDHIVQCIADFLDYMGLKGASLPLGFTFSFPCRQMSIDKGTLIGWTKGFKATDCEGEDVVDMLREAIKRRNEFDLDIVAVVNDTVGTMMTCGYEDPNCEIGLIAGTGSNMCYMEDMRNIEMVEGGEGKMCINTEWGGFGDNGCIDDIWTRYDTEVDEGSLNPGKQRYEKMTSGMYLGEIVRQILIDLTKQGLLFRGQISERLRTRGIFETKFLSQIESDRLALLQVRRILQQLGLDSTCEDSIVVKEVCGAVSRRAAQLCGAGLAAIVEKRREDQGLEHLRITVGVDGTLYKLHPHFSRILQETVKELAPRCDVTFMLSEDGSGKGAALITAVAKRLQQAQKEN

[3] = target: Tyrosine-protein phosphatase non-receptor type 11 (Homo sapiens, UniProt Q06124); experiment: SHP2 phosphatase inhibition, dose response, selectivity assay for STEP inhibitor project, biochemical (AID 602367); type: functional; conditions: read-out: IC50_Mean
[4] = target: Tyrosine-protein phosphatase non-receptor type 5 (Homo sapiens, UniProt P54829); experiment: STEP phosphatase inhibitors, confirmation, biochemical, fluorescence intensity, uHTS hits (AID 602372); type: functional; conditions: read-out: IC50_Mean
[5] = target: Dual specificity protein phosphatase 3 (Homo sapiens, UniProt P51452); experiment: VHR phosphatase inhibition, dose response, selectivity assay for STEP inhibitor project, biochemical (AID 602374); type: functional; conditions: read-out: IC50_Mean
[6] = target: T2, DNA repair protein RAD52 homolog (Homo sapiens, UniProt P43351); type: functional, biochemical
T2 sequence (P43351 whole entry): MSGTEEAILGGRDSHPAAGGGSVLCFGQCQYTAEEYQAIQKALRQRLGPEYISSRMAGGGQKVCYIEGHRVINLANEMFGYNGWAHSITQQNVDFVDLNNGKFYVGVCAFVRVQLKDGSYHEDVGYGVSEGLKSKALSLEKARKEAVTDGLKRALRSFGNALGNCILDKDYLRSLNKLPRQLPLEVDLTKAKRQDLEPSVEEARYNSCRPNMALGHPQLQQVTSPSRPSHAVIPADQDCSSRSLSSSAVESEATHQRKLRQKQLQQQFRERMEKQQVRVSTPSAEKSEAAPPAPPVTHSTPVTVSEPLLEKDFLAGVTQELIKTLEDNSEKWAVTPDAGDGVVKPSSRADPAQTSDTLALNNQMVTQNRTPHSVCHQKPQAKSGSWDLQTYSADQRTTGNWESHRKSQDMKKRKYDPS

[7] = target: T3, Histone-lysine N-methyltransferase NSD2 (Homo sapiens, UniProt O96028); type: biochemical
T3 sequence (O96028 whole entry): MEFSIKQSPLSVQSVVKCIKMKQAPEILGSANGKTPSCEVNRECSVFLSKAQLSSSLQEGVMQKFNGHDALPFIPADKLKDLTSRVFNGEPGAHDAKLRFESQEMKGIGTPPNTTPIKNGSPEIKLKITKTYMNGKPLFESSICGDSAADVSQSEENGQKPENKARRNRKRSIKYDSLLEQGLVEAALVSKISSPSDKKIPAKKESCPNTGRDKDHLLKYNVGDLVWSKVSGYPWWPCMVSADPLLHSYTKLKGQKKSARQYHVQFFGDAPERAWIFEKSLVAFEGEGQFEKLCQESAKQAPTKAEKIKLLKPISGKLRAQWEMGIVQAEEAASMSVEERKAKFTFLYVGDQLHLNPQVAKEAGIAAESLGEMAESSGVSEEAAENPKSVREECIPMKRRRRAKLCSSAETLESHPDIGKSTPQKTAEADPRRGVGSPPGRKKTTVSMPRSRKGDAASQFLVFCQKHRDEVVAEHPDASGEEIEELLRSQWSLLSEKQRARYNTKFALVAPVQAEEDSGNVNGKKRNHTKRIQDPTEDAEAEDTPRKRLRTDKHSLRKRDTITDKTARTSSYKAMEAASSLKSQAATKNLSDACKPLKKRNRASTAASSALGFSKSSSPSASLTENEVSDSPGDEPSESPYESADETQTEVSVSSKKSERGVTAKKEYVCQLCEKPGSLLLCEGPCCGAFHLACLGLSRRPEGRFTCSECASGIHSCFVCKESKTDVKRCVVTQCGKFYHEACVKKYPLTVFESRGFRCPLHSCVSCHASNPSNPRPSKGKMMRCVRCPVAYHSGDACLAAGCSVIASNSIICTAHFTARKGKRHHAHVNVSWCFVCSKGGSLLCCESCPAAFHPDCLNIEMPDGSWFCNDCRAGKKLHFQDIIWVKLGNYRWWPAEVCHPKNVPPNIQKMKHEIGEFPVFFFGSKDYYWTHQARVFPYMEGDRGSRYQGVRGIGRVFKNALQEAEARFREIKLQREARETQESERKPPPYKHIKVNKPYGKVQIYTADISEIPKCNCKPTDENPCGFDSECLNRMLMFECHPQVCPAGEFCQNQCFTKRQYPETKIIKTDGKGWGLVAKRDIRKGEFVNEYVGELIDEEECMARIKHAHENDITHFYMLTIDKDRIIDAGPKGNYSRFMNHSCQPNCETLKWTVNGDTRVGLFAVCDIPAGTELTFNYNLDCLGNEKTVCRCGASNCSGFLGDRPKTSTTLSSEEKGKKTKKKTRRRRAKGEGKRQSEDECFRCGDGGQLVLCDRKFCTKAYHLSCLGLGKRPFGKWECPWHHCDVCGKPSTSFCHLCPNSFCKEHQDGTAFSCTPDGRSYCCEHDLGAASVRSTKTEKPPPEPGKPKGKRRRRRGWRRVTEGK

[8] = target: Eukaryotic translation initiation factor 4H (Homo sapiens, UniProt Q15056); experiment: eIF4H inhibition in translation initiation, SAR follow-up (AID 435011); type: functional
[9] = target: Polyadenylate-binding protein 1 (Homo sapiens, UniProt P11940); experiment: PABP inhibition in translation initiation, SAR follow-up (AID 435018); type: functional
[10] = target: DNA dC->dU-editing enzyme APOBEC-3G (Homo sapiens, UniProt Q9HC16); experiment: Dose Response confirmation of small molecule APOBEC3G DNA Deaminase Inhibitors via a fluorescence-based single-stranded DNA deaminase assay. [Related pubchem assays (depositor defined):AID493012, AID493028]; type: functional
[11] = target: T4, Heat shock factor protein 1 (Mus musculus, UniProt P38532); experiment: inhibition of MG132-induced HSE-luciferase signal, confirmation, cell-based, NIH3T3, luminescence, dose retest (AID 2382); type: functional;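 also: NIH3T3 fibroblasts with HSF1-driven luciferase reporter stressed by proteasome inhibitor MG132; luminescence from HSF1-driven luciferase expression after 8 hours of MG132 stress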
T4 sequence (P38532 whole entry): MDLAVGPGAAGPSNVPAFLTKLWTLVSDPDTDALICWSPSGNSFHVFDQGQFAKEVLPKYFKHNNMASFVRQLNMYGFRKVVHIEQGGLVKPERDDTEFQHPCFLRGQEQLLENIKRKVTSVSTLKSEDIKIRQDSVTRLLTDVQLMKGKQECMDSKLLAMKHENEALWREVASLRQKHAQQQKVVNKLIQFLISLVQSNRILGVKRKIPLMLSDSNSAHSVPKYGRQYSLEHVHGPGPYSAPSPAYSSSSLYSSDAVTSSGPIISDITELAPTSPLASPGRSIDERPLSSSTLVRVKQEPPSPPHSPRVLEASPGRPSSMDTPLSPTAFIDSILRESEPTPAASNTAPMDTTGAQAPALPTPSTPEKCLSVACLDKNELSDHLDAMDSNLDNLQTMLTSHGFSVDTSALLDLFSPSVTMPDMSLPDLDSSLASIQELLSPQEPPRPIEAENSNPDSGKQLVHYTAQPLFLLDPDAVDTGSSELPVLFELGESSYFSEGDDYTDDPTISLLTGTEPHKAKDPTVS

[12] = target: Luciferin 4-monooxygenase (Photinus pyralis, UniProt P08659); experiment: firefly luciferase enzyme inhibitors, dose response, biochemical, luminescence (AID 1891)
[13] = target: Tumor necrosis factor (Homo sapiens, UniProt P01375); experiment: TNFa-triggered NF-kB activation inhibitors, SAR follow-up, cell-based, revised (AID 2337); type: functional
[14] = target: Nucleotide-binding oligomerization domain-containing protein 1 (Homo sapiens, UniProt Q9Y239); experiment: NOD1 signaling inhibitors, SAR follow-up, revised (AID 2333); type: functional
Nucleotide-binding oligomerization domain-containing protein 1, sequence (Q9Y239 whole entry, the tested form may be a part): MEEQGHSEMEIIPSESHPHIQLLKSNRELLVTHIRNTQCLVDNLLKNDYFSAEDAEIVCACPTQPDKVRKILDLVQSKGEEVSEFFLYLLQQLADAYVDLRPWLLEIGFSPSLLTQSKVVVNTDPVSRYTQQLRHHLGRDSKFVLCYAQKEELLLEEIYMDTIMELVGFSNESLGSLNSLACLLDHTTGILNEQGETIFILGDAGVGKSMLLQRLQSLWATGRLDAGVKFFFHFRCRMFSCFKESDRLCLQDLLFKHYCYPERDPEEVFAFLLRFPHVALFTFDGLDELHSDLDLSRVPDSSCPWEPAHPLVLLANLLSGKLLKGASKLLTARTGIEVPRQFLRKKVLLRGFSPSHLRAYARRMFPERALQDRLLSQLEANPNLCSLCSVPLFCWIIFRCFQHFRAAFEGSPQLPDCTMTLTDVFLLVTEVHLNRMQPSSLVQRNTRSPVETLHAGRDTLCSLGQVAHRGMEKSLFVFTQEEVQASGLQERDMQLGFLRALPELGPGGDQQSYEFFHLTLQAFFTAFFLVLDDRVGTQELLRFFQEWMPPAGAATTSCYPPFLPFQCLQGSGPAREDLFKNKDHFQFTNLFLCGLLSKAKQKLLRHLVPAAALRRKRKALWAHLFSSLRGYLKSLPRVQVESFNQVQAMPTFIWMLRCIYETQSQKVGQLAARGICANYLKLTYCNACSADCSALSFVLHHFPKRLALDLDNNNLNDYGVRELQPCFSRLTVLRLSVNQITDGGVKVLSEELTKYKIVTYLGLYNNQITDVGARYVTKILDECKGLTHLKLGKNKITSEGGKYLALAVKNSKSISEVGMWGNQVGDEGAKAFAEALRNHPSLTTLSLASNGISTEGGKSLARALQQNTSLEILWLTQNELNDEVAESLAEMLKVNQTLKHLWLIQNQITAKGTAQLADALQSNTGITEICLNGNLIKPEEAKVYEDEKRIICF

Luciferin 4-monooxygenase, sequence (P08659 whole entry): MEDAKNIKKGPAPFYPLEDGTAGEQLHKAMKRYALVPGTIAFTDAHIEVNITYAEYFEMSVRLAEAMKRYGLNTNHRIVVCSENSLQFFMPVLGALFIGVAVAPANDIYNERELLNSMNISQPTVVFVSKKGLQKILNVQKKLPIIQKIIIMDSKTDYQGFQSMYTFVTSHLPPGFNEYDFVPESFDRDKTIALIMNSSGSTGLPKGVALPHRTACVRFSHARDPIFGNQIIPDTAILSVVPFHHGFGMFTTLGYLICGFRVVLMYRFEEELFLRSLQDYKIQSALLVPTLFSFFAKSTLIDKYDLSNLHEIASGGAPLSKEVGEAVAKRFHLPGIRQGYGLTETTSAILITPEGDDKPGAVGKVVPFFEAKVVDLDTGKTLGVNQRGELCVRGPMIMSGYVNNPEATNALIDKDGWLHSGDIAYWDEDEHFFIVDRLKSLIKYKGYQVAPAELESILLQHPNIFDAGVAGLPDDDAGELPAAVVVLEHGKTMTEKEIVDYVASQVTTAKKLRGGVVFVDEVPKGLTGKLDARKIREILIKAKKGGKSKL
Dual specificity protein phosphatase 3, sequence (P51452 whole entry): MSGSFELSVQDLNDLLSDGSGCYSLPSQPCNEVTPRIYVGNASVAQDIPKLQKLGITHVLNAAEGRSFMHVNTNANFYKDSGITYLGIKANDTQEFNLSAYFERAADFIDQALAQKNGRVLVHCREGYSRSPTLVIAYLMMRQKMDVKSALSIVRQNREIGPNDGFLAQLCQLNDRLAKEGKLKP
Tumor necrosis factor, sequence (P01375 whole entry, the tested form may be a part): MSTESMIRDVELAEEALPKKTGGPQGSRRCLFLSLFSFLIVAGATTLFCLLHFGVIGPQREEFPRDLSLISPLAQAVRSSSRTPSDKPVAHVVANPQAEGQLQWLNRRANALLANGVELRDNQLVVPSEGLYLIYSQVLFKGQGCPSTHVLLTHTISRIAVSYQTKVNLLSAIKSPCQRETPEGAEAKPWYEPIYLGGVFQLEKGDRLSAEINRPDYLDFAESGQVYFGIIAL
Tyrosine-protein phosphatase non-receptor type 5, sequence (P54829 whole entry): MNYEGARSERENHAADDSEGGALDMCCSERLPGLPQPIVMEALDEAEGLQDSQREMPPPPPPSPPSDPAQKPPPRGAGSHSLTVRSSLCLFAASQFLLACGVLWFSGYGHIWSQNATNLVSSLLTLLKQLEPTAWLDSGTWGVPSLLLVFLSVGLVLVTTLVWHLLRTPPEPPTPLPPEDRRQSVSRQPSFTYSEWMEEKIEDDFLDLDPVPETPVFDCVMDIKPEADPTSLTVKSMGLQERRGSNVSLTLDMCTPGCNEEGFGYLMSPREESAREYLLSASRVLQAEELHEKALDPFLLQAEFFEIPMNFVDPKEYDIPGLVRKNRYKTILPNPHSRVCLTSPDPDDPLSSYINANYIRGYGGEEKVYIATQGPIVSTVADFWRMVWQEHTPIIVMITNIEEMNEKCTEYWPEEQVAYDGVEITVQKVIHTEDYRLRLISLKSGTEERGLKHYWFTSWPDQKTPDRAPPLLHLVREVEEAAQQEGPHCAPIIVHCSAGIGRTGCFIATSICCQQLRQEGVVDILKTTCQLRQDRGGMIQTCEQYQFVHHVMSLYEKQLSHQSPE
Eukaryotic translation initiation factor 4E, sequence (P63073 whole entry): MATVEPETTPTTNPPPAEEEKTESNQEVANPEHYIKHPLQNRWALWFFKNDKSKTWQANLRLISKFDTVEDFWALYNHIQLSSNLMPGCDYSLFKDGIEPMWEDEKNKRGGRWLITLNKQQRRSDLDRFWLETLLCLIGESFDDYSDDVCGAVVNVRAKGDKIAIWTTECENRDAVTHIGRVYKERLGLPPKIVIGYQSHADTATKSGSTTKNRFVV
DNA dC->dU-editing enzyme APOBEC-3G, sequence (Q9HC16 whole entry): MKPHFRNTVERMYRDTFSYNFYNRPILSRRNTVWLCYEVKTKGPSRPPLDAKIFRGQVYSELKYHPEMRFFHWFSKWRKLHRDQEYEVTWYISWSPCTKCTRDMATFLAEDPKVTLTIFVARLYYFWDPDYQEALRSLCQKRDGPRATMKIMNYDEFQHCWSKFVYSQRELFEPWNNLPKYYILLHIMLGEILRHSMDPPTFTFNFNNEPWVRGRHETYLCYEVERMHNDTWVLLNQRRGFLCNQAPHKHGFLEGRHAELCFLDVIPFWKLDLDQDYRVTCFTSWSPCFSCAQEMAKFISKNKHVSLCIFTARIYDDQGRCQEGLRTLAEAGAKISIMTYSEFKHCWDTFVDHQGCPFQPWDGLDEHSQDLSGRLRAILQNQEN
Polyadenylate-binding protein 1, sequence (P11940 whole entry): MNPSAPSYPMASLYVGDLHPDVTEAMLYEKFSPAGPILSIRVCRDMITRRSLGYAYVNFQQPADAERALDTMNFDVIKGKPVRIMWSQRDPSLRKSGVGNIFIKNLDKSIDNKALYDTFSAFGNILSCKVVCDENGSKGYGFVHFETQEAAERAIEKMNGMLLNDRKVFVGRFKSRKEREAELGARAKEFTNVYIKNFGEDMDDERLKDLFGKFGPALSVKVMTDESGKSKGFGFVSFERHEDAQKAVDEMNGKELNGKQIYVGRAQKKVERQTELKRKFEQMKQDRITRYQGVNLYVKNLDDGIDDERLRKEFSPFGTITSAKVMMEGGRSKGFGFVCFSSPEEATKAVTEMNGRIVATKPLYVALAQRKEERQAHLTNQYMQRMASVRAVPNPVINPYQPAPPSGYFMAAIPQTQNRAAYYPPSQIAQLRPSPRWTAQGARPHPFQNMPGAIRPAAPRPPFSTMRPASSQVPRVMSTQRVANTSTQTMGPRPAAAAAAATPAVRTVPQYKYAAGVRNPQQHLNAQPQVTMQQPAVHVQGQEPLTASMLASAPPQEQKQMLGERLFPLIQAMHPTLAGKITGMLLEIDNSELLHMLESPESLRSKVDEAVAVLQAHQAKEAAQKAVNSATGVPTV

IC50 [1]: 17.3 µM (active)
IC50 [2]: 25.8 µM (inactive)
IC50 [3]: 19 µM (active)
IC50 [4]: > 80 µM (inactive)
IC50 [5]: 24.1 µM (inactive)
AC50 [6]: 17.2 µM (active)
AC50 [7]: 6.74 µM (active)
SMILES: N=C(NCc1ccc2c(c1)OCO2)NC(=O)c1ccccc1

SMILES: CCOC(=O)Cc1c(Sc2ccccc2)c2ccccc2n1C
IC50 [8]: > 100 µM (inactive)
IC50 [9]: > 100 µM (inactive)

SMILES: CCNc1nc(NCC)n2c(SCC(=O)Nc3ccc(CC)cc3)nnc2n1
IC50 [10]: 75.6 µM (active)

SMILES: CC(C)(C)c1ccc(C(=O)ON=C(N)c2ccccc2)cc1
EC50 [11]: < 0.16 µM (active)
EC50 [12]: 5.63 µM (active)
IC50 [13]: 1.51 µM (active)
IC50 [14]: 2.84 µM (active)
